Results as given in publication PMC9226124, “Macrocycle-stabilization of its interaction with 14-3-3 increases plasma membrane localization and activity of CFTR” (Nature Communications, 2022).
Where “and” joins values, the source holds several entries; their conditions need not be identical. Equal values may be shown once.

Columns and labels:
[1] = biological target: T1, 14-3-3β/CFTRpS753pS768 complex (Homo sapiens, UniProt P13569+P31946); assay: FP assay, 14-3-3β titration at constant compound concentration (apparent KD); format: binding
T1 construct: His6 (cleaved yes); made in house; peptide synthetic
T1 sequence (P31946 whole entry): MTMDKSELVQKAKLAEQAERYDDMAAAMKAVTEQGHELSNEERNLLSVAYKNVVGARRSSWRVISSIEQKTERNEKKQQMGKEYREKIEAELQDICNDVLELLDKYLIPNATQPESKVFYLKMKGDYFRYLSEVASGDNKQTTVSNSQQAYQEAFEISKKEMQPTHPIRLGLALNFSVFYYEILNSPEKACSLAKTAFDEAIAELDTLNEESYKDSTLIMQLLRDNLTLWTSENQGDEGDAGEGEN
T1 sequence (P13569 747-774 limits assumed): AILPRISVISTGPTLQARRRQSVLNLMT
Procedure: FC-A (100 µM) was added as a positive control and DMSO as the negative control. […] Background polarization was subtracted from all values, n = 3 technical replicates. […] Source data are provided as a Source Data file. […]
The FITC-labeled peptides were dissolved in FP buffer (10 mM HEPES pH 7.4, 150 mM NaCl, 0.1% Tween20, 1 mg/mL BSA) to a final concentration of 100 nM or 10 nM. […] The dilution series were made in 384 Corning Black Round Bottom well plates and their polarization was measured with a Tecan Infinite F500 plate reader (ex. = 485 nm, em. = 535 nm). The method of fitting of the curves was: “log(agonist) vs. response – Variable slope (four parameters)” from GraphPad Prism. The equation is Y = Bottom + (Top-Bottom)/(1 + 10^((LogEC50-X)*HillSlope)).
from the hit validation library.
f the compound, 100 µM FC-A, or both compound and FC-A, 100 µM each. Background polarization was subtracted f
rom all values, n=3 technical replicates.
Source data are provided as a Source Data file.

[2] = biological target: T2, F508del-CFTR in BHK cells (Homo sapiens, UniProt P13569, DEL508-508); assay: FLIPR membrane potential (FMP) assay; format: cell-based, hamster; settings: for CFTR function (FMP assay): BHK cells, 24 h, 20 μM compound, genistein, forskolin; for FMP assay signal (Fig5b): individual replicates
T2 construct: expressed in transfected cells; host or cells: baby hamster kidney (BHK) cells
T2 sequence (P13569 with tags, fused parts or gaps DEL508-508): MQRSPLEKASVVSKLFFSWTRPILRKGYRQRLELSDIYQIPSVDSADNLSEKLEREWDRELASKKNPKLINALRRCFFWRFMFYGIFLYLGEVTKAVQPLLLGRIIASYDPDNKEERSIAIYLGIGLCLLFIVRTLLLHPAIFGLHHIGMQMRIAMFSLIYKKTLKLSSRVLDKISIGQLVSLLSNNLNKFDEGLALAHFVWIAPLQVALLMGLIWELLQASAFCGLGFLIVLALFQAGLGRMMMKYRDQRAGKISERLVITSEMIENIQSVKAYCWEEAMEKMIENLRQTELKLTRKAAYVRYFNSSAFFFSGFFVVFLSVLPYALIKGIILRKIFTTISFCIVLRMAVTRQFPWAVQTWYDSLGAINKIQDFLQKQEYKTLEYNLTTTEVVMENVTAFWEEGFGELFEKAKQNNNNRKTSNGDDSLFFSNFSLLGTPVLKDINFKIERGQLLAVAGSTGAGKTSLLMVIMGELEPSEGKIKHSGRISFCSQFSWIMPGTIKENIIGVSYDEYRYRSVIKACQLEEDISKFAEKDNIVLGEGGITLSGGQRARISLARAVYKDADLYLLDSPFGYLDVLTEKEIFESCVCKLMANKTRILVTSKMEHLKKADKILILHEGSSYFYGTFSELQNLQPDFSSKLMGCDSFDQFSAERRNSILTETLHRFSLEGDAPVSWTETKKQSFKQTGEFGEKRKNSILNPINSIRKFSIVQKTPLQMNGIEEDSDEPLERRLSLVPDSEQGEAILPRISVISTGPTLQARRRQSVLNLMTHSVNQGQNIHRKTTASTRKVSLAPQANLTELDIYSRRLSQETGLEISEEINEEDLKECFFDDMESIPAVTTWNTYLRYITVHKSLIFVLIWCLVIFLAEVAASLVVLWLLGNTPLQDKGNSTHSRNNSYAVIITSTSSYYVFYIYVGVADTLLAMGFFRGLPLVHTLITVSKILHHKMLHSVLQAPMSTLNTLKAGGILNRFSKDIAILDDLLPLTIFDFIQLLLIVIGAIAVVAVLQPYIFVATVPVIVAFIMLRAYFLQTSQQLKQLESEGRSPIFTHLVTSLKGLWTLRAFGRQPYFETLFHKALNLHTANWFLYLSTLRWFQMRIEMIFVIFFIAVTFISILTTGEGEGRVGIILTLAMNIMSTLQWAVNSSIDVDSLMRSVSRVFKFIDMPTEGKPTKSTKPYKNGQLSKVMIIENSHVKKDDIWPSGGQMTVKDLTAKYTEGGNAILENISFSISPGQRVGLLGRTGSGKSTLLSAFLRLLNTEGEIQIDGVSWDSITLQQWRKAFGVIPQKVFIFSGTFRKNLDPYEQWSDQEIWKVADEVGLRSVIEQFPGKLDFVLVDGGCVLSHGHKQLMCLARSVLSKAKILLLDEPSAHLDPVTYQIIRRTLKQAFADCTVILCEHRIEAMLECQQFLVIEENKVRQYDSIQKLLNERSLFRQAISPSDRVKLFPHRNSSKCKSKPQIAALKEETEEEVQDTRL
Outline: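 BHK cells expressing F508del-CFTR were incubated 24 h at 37 °C with 20 μM compound. FMP dye plus genistein was added in low-Cl⁻ buffer (pH 7.4), then forskolin after a 2 min baseline. Fluorescence was monitored 5 min; the value is the rate of fluorescence change.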

[3] = CY compound (100 μM), 14-3-3β concentration 3.05176e-8 M
[4] = CY compound (100 μM), 14-3-3β concentration 2.44141e-7 M
[5] = CY compound (100 μM), 14-3-3β concentration 4.88281e-7 M
[6] = CY compound (100 μM), 14-3-3β concentration 7.8125e-6 M
[7] = CY compound (100 μM), 14-3-3β concentration 1.5625e-5 M
[8] = CY compound (100 μM), 14-3-3β concentration 3.125e-5 M
[9] = CY compound (100 μM), 14-3-3β concentration 6.25e-5 M
[10] = CY compound (100 μM), 14-3-3β concentration 0.000125 M
[11] = CY compound (100 μM), 14-3-3β concentration 0.00025 M
[12] = CY compound (100 μM), 14-3-3β concentration 0.0005 M
[13] = FC-A + CY compound, 14-3-3β concentration 119.2 pM
[14] = FC-A + CY compound, 14-3-3β concentration 6.10352e-8 M
[15] = FC-A + CY compound, 14-3-3β concentration 1.2207e-7 M
[16] = FC-A + CY compound, 14-3-3β concentration 2.44141e-7 M
[17] = FC-A + CY compound, 14-3-3β concentration 4.88281e-7 M
[18] = FC-A + CY compound, 14-3-3β concentration 9.76563e-7 M
[19] = FC-A + CY compound, 14-3-3β concentration 1.95313e-6 M
[20] = FC-A + CY compound, 14-3-3β concentration 3.90625e-6 M
[21] = FC-A + CY compound, 14-3-3β concentration 7.8125e-6 M
[22] = FC-A + CY compound, 14-3-3β concentration 1.5625e-5 M
[23] = FC-A + CY compound, 14-3-3β concentration 3.125e-5 M
[24] = FC-A + CY compound, 14-3-3β concentration 6.25e-5 M
[25] = FC-A + CY compound, 14-3-3β concentration 0.000125 M
[26] = FC-A + CY compound, 14-3-3β concentration 0.00025 M
[27] = FC-A + CY compound, 14-3-3β concentration 0.0005 M
[28] = CY compound (100 μM), 14-3-3β concentration 9.76563e-7 M
[29] = CY compound (100 μM), 14-3-3β concentration 1.95313e-6 M
[30] = CY compound (100 μM), 14-3-3β concentration 3.90625e-6 M

SMILES: CC1NC(=O)C(CCCNC(=N)N)NC(=O)C2CCCN2Cc2cccc(c2)-c2ccccc2CNC(=O)C(CCCNC(=N)N)NC1=O (stereo not shown) [CY007476]
- Fluorescence polarization signal, 14-3-3β titration ([1]; CY compound (100 μM), 14-3-3β concentration 7.62939e-9 M): 3.667 and 2.667 and 4.667
- Fluorescence polarization signal, 14-3-3β titration [1, 3]: 5.667 and 6.667
- Fluorescence polarization signal, 14-3-3β titration [1, 4]: 8.667 and 10.6667 and 11.6667
- Fluorescence polarization signal, 14-3-3β titration [1, 5]: 12.6667 and 17.6667 and 16.6667
- Fluorescence polarization signal, 14-3-3β titration [1, 6]: 36.6667 and 60.6667 and 59.6667
- Fluorescence polarization signal, 14-3-3β titration [1, 7]: 49.6667 and 67.6667 and 72.6667
- Fluorescence polarization signal, 14-3-3β titration [1, 8]: 68.6667 and 82.6667 and 79.6667
- Fluorescence polarization signal, 14-3-3β titration [1, 9]: 87.6667 and 91.6667 and 95.6667
- Fluorescence polarization signal, 14-3-3β titration [1, 10]: 105.667 and 110.667 and 108.667
- Fluorescence polarization signal, 14-3-3β titration [1, 11]: 127.667 and 126.667
- Fluorescence polarization signal, 14-3-3β titration [1, 12]: 145.667 and 146.667 and 147.667
- Fluorescence polarization signal, 14-3-3β titration [1, 13]: 1.667
- Fluorescence polarization signal, 14-3-3β titration ([1]; FC-A + CY compound, 14-3-3β concentration 3.05176e-8 M): 5.667 and 8.667
- Fluorescence polarization signal, 14-3-3β titration [1, 14]: 6.667 and 12.6667 and 9.667
- Fluorescence polarization signal, 14-3-3β titration [1, 15]: 20.6667 and 16.6667 and 13.6667
- Fluorescence polarization signal, 14-3-3β titration [1, 16]: 27.6667 and 26.6667
- Fluorescence polarization signal, 14-3-3β titration [1, 17]: 49.6667 and 43.6667
- Fluorescence polarization signal, 14-3-3β titration [1, 18]: 71.6667 and 68.6667 and 64.6667
- Fluorescence polarization signal, 14-3-3β titration [1, 19]: 94.6667 and 91.6667 and 86.6667
- Fluorescence polarization signal, 14-3-3β titration [1, 20]: 110.667 and 106.667 and 104.667
- Fluorescence polarization signal, 14-3-3β titration [1, 21]: 123.667 and 119.667 and 117.667
- Fluorescence polarization signal, 14-3-3β titration [1, 22]: 128.667 and 130.667
- Fluorescence polarization signal, 14-3-3β titration [1, 23]: 139.667 and 137.667 and 141.667
- Fluorescence polarization signal, 14-3-3β titration [1, 24]: 145.667 and 146.667 and 143.667
- Fluorescence polarization signal, 14-3-3β titration [1, 25]: 155.667 and 156.667
- Fluorescence polarization signal, 14-3-3β titration [1, 26]: 165.667 and 164.667 and 162.667
- Fluorescence polarization signal, 14-3-3β titration [1, 27]: 178.667 and 174.667 and 172.667
- CFTR function (FMP assay) [2]: inactive
- FMP assay signal (Fig5b) [2]: 153.964 and 148.571 and 156.714 and 190.464 and 184.357 and 154.25

SMILES: CN1CC(=O)NC(CCCNC(=N)N)C(=O)NC(CCC(N)=O)C(=O)NC(CCCNC(=N)N)C(=O)NCc2ccccc2-c2cccc(c2)C1 (stereo not shown) [CY007491]
- Fluorescence polarization signal, 14-3-3β titration [1, 3]: 2.667
- Fluorescence polarization signal, 14-3-3β titration ([1]; CY compound (100 μM), 14-3-3β concentration 6.10352e-8 M): 5.667 and 3.667 and 4.667
- Fluorescence polarization signal, 14-3-3β titration [1, 4]: 10.6667 and 8.667
- Fluorescence polarization signal, 14-3-3β titration [1, 5]: 20.6667 and 17.6667 and 18.6667
- Fluorescence polarization signal, 14-3-3β titration [1, 28]: 35.6667 and 31.6667 and 32.6667
- Fluorescence polarization signal, 14-3-3β titration [1, 29]: 46.6667 and 44.6667 and 41.6667
- Fluorescence polarization signal, 14-3-3β titration [1, 30]: 61.6667 and 57.6667 and 56.6667
- Fluorescence polarization signal, 14-3-3β titration [1, 6]: 73.6667 and 74.6667 and 72.6667
- Fluorescence polarization signal, 14-3-3β titration [1, 7]: 84.6667 and 82.6667 and 83.6667
- Fluorescence polarization signal, 14-3-3β titration [1, 8]: 94.6667 and 91.6667 and 92.6667
- Fluorescence polarization signal, 14-3-3β titration [1, 9]: 107.667 and 108.667
- Fluorescence polarization signal, 14-3-3β titration [1, 10]: 115.667 and 120.667 and 113.667
- Fluorescence polarization signal, 14-3-3β titration [1, 11]: 128.667 and 129.667
- Fluorescence polarization signal, 14-3-3β titration [1, 12]: 146.667 and 147.667
- Fluorescence polarization signal, 14-3-3β titration ([1]; FC-A + CY compound, 14-3-3β concentration 7.62939e-9 M): 2 and 1
- Fluorescence polarization signal, 14-3-3β titration [1, 14]: 9 and 13 and 12
- Fluorescence polarization signal, 14-3-3β titration [1, 15]: 23
- Fluorescence polarization signal, 14-3-3β titration [1, 16]: 39 and 43 and 40
- Fluorescence polarization signal, 14-3-3β titration [1, 17]: 61 and 66 and 64
- Fluorescence polarization signal, 14-3-3β titration [1, 18]: 90 and 91
- Fluorescence polarization signal, 14-3-3β titration [1, 19]: 115 and 116
- Fluorescence polarization signal, 14-3-3β titration [1, 20]: 131 and 135 and 137
- Fluorescence polarization signal, 14-3-3β titration [1, 21]: 145 and 142 and 147
- Fluorescence polarization signal, 14-3-3β titration [1, 22]: 154 and 157
- Fluorescence polarization signal, 14-3-3β titration [1, 23]: 158 and 155 and 159
- Fluorescence polarization signal, 14-3-3β titration [1, 24]: 165 and 162
- Fluorescence polarization signal, 14-3-3β titration [1, 25]: 160 and 162 and 164
- Fluorescence polarization signal, 14-3-3β titration [1, 26]: 164 and 166 and 167
- Fluorescence polarization signal, 14-3-3β titration [1, 27]: 172 and 174 and 170
- CFTR function (FMP assay) [2]: inactive
- FMP assay signal (Fig5b) [2]: 58.5 and 35.75 and 49.393 and 59.036 and 29.929 and 21.679

SMILES: N=C(N)NCCCC1NC(=O)C(CCC(N)=O)NC(=O)C(CCCNC(=N)N)NC(=O)C2CCCN2Cc2cccc(c2)-c2ccccc2CNC1=O (stereo not shown) [CY007455]
- Fluorescence polarization signal, 14-3-3β titration ([1]; CY compound (100 μM), 14-3-3β concentration 119.2 pM): 1.333
- Fluorescence polarization signal, 14-3-3β titration [1, 5]: 8.333 and 7.333
- Fluorescence polarization signal, 14-3-3β titration [1, 28]: 12.3333 and 8.333 and 11.3333
- Fluorescence polarization signal, 14-3-3β titration [1, 29]: 20.3333 and 17.3333 and 14.3333
- Fluorescence polarization signal, 14-3-3β titration [1, 30]: 27.3333 and 24.3333 and 22.3333
- Fluorescence polarization signal, 14-3-3β titration [1, 6]: 38.3333 and 32.3333 and 35.3333
- Fluorescence polarization signal, 14-3-3β titration [1, 7]: 51.3333 and 50.3333 and 48.3333
- Fluorescence polarization signal, 14-3-3β titration [1, 8]: 68.3333 and 69.3333 and 65.3333
- Fluorescence polarization signal, 14-3-3β titration [1, 9]: 92.3333 and 88.3333 and 91.3333
- Fluorescence polarization signal, 14-3-3β titration [1, 10]: 110.333 and 109.333
- Fluorescence polarization signal, 14-3-3β titration [1, 11]: 128.333 and 124.333 and 127.333
- Fluorescence polarization signal, 14-3-3β titration [1, 12]: 152.333 and 149.333
- Fluorescence polarization signal, 14-3-3β titration [1, 13]: 2 and 1
- Fluorescence polarization signal, 14-3-3β titration [1, 14]: 5 and 6 and 9
- Fluorescence polarization signal, 14-3-3β titration [1, 15]: 9 and 7
- Fluorescence polarization signal, 14-3-3β titration [1, 16]: 10 and 13 and 15
- Fluorescence polarization signal, 14-3-3β titration [1, 17]: 23 and 24 and 20
- Fluorescence polarization signal, 14-3-3β titration [1, 18]: 41 and 39 and 35
- Fluorescence polarization signal, 14-3-3β titration [1, 19]: 58 and 54 and 52
- Fluorescence polarization signal, 14-3-3β titration [1, 20]: 74 and 73 and 71
- Fluorescence polarization signal, 14-3-3β titration [1, 21]: 91 and 96 and 92
- Fluorescence polarization signal, 14-3-3β titration [1, 22]: 115 and 114
- Fluorescence polarization signal, 14-3-3β titration [1, 23]: 128 and 129 and 126
- Fluorescence polarization signal, 14-3-3β titration [1, 24]: 141 and 144
- Fluorescence polarization signal, 14-3-3β titration [1, 25]: 157 and 153 and 158
- Fluorescence polarization signal, 14-3-3β titration [1, 26]: 160 and 164
- Fluorescence polarization signal, 14-3-3β titration [1, 27]: 175 and 174
- FMP assay signal (Fig5b) [2]: 35.786 and 28.786 and 56.25 and 44.357 and 64.929 and 56.893
